According to patent publication US20260109707A1, “HETEROBIFUNCTIONAL COMPOUNDS AND METHODS OF TREATING DISEASE” (Halda Therapeutics OpCo. Inc., priority 2022, published 2026):
Read-outs that look alike come from different tables or passages of the source.

Columns and labels:
[1] = tested on: T47D cells; experiment: Cellular growth inhibition assay for T47D cells (CellTiter-Glo, 72 hours); assay type: cell-based, human; settings: 72 hours treatment
In short: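 Growth inhibition as GI50, fitted with four parameters to CellTiter-Glo luminescence after 72 h of compound exposure (0.5% DMSO). Cells were T47D, grown in insulin-supplemented (0.2 units/mL) DMEM with 10% FBS and treated one day post-seeding.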

[2] = tested on: T-Rex 293 cell line SC3 cells having increased expression of androgen receptor protein due to exposure to doxycycline; experiment: Cellular growth inhibition assay, T-Rex 293 SC3 cells with doxycycline (CellTiter-Glo, 72 hours); assay type: cell-based; settings: T-Rex 293 SC3 cells with increased androgen receptor expression due to doxycycline (10 ng/mL)
In short: (§1)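 Growth inhibition is measured in an inducible AR-expressing T-Rex 293 clone, SC3, cultured with or without 10 ng/mL doxycycline in hormone-depleted medium. Test compounds are applied for 72 hours. GI50 values derive from CellTiter-Glo 2.0 signal fitted by four-parameter regression.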

[3] = tested on: T-Rex 293 cell line SC3 cells lacking increased expression of androgen receptor protein; experiment: Cellular growth inhibition assay, T-Rex 293 SC3 cells without doxycycline (CellTiter-Glo, 72 hours); assay type: cell-based; settings: T-Rex 293 cell line SC3 cells not exposed to doxycycline (lacking increased androgen receptor expression)
In short: as §1

[4] = tested on: T-Rex 293 cell line SC cells lacking increased expression of progesterone receptor isoform B protein; experiment: Cellular growth inhibition assay, T-Rex 293 SC cells without doxycycline (CellTiter-Glo, 72 hours); assay type: cell-based; settings: T-Rex 293 SC cells not exposed to doxycycline
Experimental: (§2) The following types of cells were prepared for this experiment: (i) a T-Rex 293 cell line having increased expression of progesterone receptor isoform B protein due to exposure to doxycycline and (ii) a T-Rex 293 cell line lacking increased expression of progesterone receptor isoform B protein. Ability of the test compounds to inhibit proliferation of the foregoing cell types was evaluated according to the procedures set forth below.
(§3) The doxycycline-inducible progesterone receptor isoform B protein expressing cell line was established using the following protocol: T-Rex 293 cells were purchased from Invitrogen (Cat #R71007) and transfected using Lipofectamine 2000 with the wild-type progesterone receptor B protein sequence cloned into the pcDNA4/TO vector. Transfected cells were selected using 400 μg/mL Zeocin (Invitrogen Cat #R25001). Following selection, single clones were raised and maintained in Dulbecco's Modified Eagle Medium (DMEM) supplemented with 10% w/w Tetracycline-free fetal bovine serum (FBS) and 250 μg/mL Zeocin. Clones were analyzed for expression of progesterone receptor isoform B protein in the presence and absence of 10 ng/mL doxycycline (Sigma Cat #D9891), and a single doxycycline-inducible clone (hereinafter “SC”) was selected for use in downstream assays.
(§4) The SC cells were seeded on poly-D-lysine coated, black clear-bottom 384-well plates at 2500/well, in 25 μL Phenol Red Free Dulbecco's Modified Eagle Medium (DMEM) supplemented with 10% w/w charcoal-dextran treated fetal bovine serum (FBS) and 1% w/w pen-strep, with or without 10 ng/mL doxycycline. Pen-Strep is a commercially available mixture of penicillin G and streptomycin, which is used in mammalian cell culture media to prevent bacterial contamination. Phenol Red Free Dulbecco's Modified Eagle Medium (DMEM) supplemented with 10% w/w charcoal-dextran treated fetal bovine serum (FBS) and 1% w/w pen-strep, with or without 10 ng/mL doxycycline is herein referred to as Treatment Medium. Following seeding of cells in the plates, the plates were spun at 300×g for 30 seconds, then equilibrated to room temperature for 30 minutes, and then deposited in a humidified tissue culture incubator maintained at 37° C. with 5% CO2.
(§5) At 24 hours after seeding of the cells, dilutions of test compound were prepared in DMSO and dissolved in Treatment Medium, to achieve a final DMSO concentration of 0.5% w/w, thereby providing the Test Compound Solution. A 25 μL aliquot of the Test Compound Solution was added to cells in the well plates. An equal volume of a solution containing DMSO and Treatment Medium was used as a negative control. Following treatment of cells with Test Compound Solution or said equal volume of a solution containing DMSO and Treatment Medium, the plates were spun at 300×g for 30 seconds, and then left in an incubator for 72 hours.
(§6) At the end of the treatment duration, cell viability was quantified with CellTiter-Glo 2.0 reagent (Promega Cat #G9243). For this purpose, plates were equilibrated to room temperature for 30 minutes, and then 25 μL of CellTiter-Glo 2.0 reagent was added to cells in the plate wells. Plates were then agitated on a shaker for two minutes at 500 rpm and subsequently incubated at room temperature for 10 minutes. Following incubation, the plates were spun at 3000×g for 30 seconds, then sealed with an optical adhesive cover, and luminescence readings were measured with an EnVision Plate Reader (Perkin Elmer).
(§7) Data was normalized using zero luminescence for baseline. A four-parameter non-linear regression curve fit was applied to dose-response data in GraphPad Prism data analysis software to determine the half-maximal growth inhibitory concentration (GI50) for each test compound.

[5] = Cellular growth inhibition assay, T-Rex 293 SC cells with doxycycline (CellTiter-Glo, 72 hours); assay type: cell-based; settings: T-Rex 293 SC cells with doxycycline (increased progesterone receptor isoform B)
Experimental: as §2, §3, §4, §5, §6, §7

[6] = tested on: VCaP cells; experiment: Cellular growth inhibition assay for VCaP cells (CellTiter-Glo, 72 hours); assay type: cell-based, human
In short: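 Luminescent viability signal after 72 h of compound exposure gave GI50 values by four-parameter nonlinear regression. Compounds were added in 0.5% DMSO to cells plated 24 h earlier at 5000/well in DMEM containing 10% FBS.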

Compound	GI50 ([1]; Homo sapiens, T47D, 72 h) [nM]	GI50 ([6]; Homo sapiens, VCaP, 72 h) [nM]	GI50 [1] [nM]	GI50 [6] [nM]	GI50 ([2]; 72 h) [nM]	GI50 ([3]; 72 h) [nM]	GI50 [4] [nM]	GI50 [5] [nM]	GI50 [2] [nM]	GI50 [3] [nM]
Cc1sc2c(c1C)C(c1ccc(C3C[C@@H]3CC3CCCN(c4ccc(C(=O)N[C@H]5CC[C@H](Oc6ccc(C#N)c(Cl)c6)CC5)nn4)C3)cc1)=N[C@@H](Cc1ncco1)c1nnc(C)n1-2 (some centres unmarked) [I-203]	> 3000	1500 to 3000			< 500	500 to 1500	500 to 1500	500 to 1500		
Cc1sc2c(c1C)C(c1ccc(CCNC(=O)NCc3ccc(C(=O)N[C@H]4CC[C@H](Oc5ccc(C#N)c(Cl)c5)CC4)nn3)cc1)=N[C@@H](Cc1ncco1)c1nnc(C)n1-2 [I-293]	500 to 1500	< 500			< 500	> 3000				
Cc1sc2c(c1C)C(c1ccc(CCC3CC4(CCCC(c5ccc(C(=O)N[C@H]6CC[C@H](Oc7ccc(C#N)c(Cl)c7)CC6)nn5)C4)C3)nc1)=N[C@@H](Cc1ncco1)c1nnc(C)n1-2 (some centres unmarked) [I-438]	500 to 1500	< 500			< 500	< 500				
Cc1sc2c(c1C)C(c1ccc(CN(C)C(=O)[C@@H]3CC[C@@H](c4ccc(C(=O)N[C@H]5CC[C@H](Oc6ccc(C#N)c(Cl)c6)CC5)nn4)C3)cc1)=N[C@@H](Cc1ncco1)c1nnc(C)n1-2 [I-316]	1500 to 3000	< 500			< 500	> 3000				
Cc1sc2c(c1C)C(c1ccc(CCC3CCC4CN(c5ccc(C(=O)N[C@H]6CC[C@H](Oc7ccc(C#N)c(Cl)c7)CC6)nn5)CCN4C3)cc1)=NC(Cc1ncco1)c1nnc(C)n1-2 (some centres unmarked) [I-401]			> 3000	> 3000					> 3000	> 3000
Cc1sc2c(c1C)C(c1ccc(C(C)(C)N3CC4(CCN(c5ccc(C(=O)N[C@H]6CC[C@H](Oc7ccc(C#N)c(Cl)c7)CC6)nn5)CC4)C3)cc1)=N[C@@H](Cc1ncco1)c1nnc(C)n1-2 [I-391]	> 3000	> 3000			< 500	> 3000				
Cc1sc2c(c1C)C(c1ccc(N3CCC4(CCCN(c5ccc(C(=O)N[C@H]6CC[C@H](Oc7ccc(C#N)c(Cl)c7)CC6)nn5)C4)CC3)cc1)=NC1(CC1)c1nnc(C)n1-2 [I-398]	> 3000	1500 to 3000			< 500	> 3000				
Cc1sc2c(c1C)C(c1ccc(OC3CC4(CCN(c5ccc(C(=O)N[C@H]6CC[C@H](Oc7ccc(C#N)c(Cl)c7)CC6)nn5)CC4)C3)cc1)=N[C@@](C)(C(C)c1ncco1)c1nnc(C)n1-2 (some centres unmarked) [I-226]	500 to 1500	> 3000			< 500	> 3000				
Cc1sc2c(c1C)C(c1ccc(C#CC3CC4(CCCN(c5ccc(C(=O)N[C@H]6CC[C@H](Oc7ccc(C#N)c(Cl)c7)CC6)nn5)C4)C3)cc1)=NCc1nnc(C)n1-2 (some centres unmarked) [I-420]	1500 to 3000	< 500			< 500	> 3000				
Cc1sc2c(c1C)C(c1ccc([C@H]3C[C@H](C4CC5(CCN(c6ccc(C(=O)N[C@H]7CC[C@H](Oc8ccc(C#N)c(Cl)c8)CC7)nn6)CC5)C4)C3)cc1)=N[C@@H](Cc1ncco1)c1nnc(C)n1-2 [I-381]	> 3000	> 3000			> 3000	> 3000				
Cc1sc2c(c1C)C(c1ccc(CNC(=O)Cc3ccc(C(=O)N[C@H]4CC[C@H](Oc5ccc(C#N)c(Cl)c5)CC4)nn3)cc1)=N[C@@H](Cc1ncco1)c1nnc(C)n1-2 [I-300]	500 to 1500	< 500			500 to 1500	> 3000				
Cc1sc2c(c1C)C(c1ccc(C(C)(C)C3CC4(CCCN(c5ccc(C(=O)N[C@H]6CC[C@H](Oc7ccc(C#N)c(Cl)c7)CC6)nn5)C4)C3)cc1)=N[C@@H](C)c1nnc(C)n1-2 (some centres unmarked) [I-423]	500 to 1500	> 3000			< 500	1500 to 3000				
Cc1sc2c(c1C)C(c1ccc(-c3ccc(C4CCN(c5ccc(C(=O)NC6CCC(Oc7ccc(C#N)c(Cl)c7)CC6)nn5)CC4)cc3)cc1)=N[C@@H](Cc1ncco1)c1nnc(C)n1-2 (some centres unmarked) [I-369]	> 3000	< 500			> 3000	> 3000				
Cc1sc2c(c1C)C(c1ccc(CNC(=O)[C@@H]3CCCN(c4ccc(C(=O)N[C@H]5CC[C@H](Oc6ccc(C#N)c(Cl)c6)CC5)nn4)C3)cc1)=N[C@@H](Cc1ncco1)c1nnc(C)n1-2 [I-230]	1500 to 3000	500 to 1500			< 500	500 to 1500				
Cc1sc2c(c1C)C(c1ccc(OC3CC4(CCN(c5ccc(C(=O)N[C@H]6CC[C@H](Oc7ccc(C#N)c(Cl)c7)CC6)nn5)CC4)C3)cc1)=N[C@@H](CC#N)c1nnc(C)n1-2 [I-83]	< 500	< 500			< 500	> 3000				

More lines, main results first:

GI50 ([1]; Homo sapiens, T47D, 72 h) [nM]	GI50 ([6]; Homo sapiens, VCaP, 72 h) [nM]	GI50 [1] [nM]	GI50 [6] [nM]	Compound	GI50 ([2]; 72 h) [nM]	GI50 ([3]; 72 h) [nM]	GI50 [4] [nM]	GI50 [5] [nM]	GI50 [2] [nM]	GI50 [3] [nM]
< 500	< 500			CCNC(=O)C[C@@H]1N=C(c2ccc(N3CCN(CC4CCN(c5ccc(C(=O)N[C@H]6CC[C@H](Oc7ccc(C#N)c(Cl)c7)CC6)nn5)CC4)CC3)cc2)c2c(sc(C)c2C)-n2c(C)nnc21 [I-28]	< 500	500 to 1500	< 500	< 500		
< 500	< 500			CCNC(=O)C[C@@H]1N=C(c2ccc(OCCC3CCN(c4ccc(C(=O)N[C@H]5CC[C@H](Oc6ccc(C#N)c(Cl)c6)CC5)nn4)CC3)cc2)c2c(sc(C)c2C)-n2c(C)nnc21 [I-13]	< 500	< 500	< 500	< 500		
< 500	< 500			CCNC(=O)C[C@@H]1N=C(c2ccc(C3CCC(OC4CCN(c5ccc(C(=O)N[C@H]6CC[C@H](Oc7ccc(C#N)c(Cl)c7)CC6)nn5)CC4)C3)cc2)c2c(sc(C)c2C)-n2c(C)nnc21 (some centres unmarked) [I-67]	< 500	< 500	< 500	< 500		
< 500	< 500			Cc1sc2c(c1C)C(c1ccc(CC3CN([C@@H]4CCN(c5ccc(C(=O)N[C@H]6CC[C@H](Oc7ccc(C#N)c(Cl)c7)CC6)nn5)C4)C3)cc1)=N[C@@H](Cc1ncco1)c1nnc(C)n1-2 [I-115]	< 500	< 500				
< 500	< 500			Cc1sc2c(c1C)C(c1ccc(CC[C@H]3CCCN(c4ccc(C(=O)N[C@H]5CC[C@H](Oc6ccc(C#N)c(Cl)c6)CC5)nn4)C3)cc1)=N[C@@H](Cc1ncco1)c1nnc(C)n1-2 [I-254]	< 500	< 500				
< 500	< 500			Cc1sc2c(c1C)C(c1ccc(C#CCN3[C@H](C)CN(c4ccc(C(=O)N[C@H]5CC[C@H](Oc6ccc(C#N)c(Cl)c6)CC5)nn4)C[C@@H]3C)cc1)=N[C@@H](Cc1ncco1)c1nnc(C)n1-2 [I-140]	< 500	< 500				
